Experimental findings from ChEMBL document CHEMBL5291721, “A preclinical secondary pharmacology resource illuminates target-adverse drug reaction associations of marketed drugs” (Nat Commun, 2023) are described below.

Test [1] concerns the target T1, Alpha-1A adrenergic receptor (Homo sapiens, UniProt P35348).
T1 sequence (P35348 whole entry): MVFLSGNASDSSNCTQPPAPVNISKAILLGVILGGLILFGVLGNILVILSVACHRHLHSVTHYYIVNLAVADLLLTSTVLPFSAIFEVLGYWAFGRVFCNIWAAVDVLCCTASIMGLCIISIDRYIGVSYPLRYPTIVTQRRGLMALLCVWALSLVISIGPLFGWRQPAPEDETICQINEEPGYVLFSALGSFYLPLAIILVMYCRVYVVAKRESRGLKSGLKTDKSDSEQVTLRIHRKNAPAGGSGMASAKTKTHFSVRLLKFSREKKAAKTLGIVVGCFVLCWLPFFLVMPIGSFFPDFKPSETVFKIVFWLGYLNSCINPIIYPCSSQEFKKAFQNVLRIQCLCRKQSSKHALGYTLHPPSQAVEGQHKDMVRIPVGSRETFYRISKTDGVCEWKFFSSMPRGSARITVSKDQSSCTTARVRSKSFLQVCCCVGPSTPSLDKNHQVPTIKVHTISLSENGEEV
It is filed as functional, cell-based.

In test [2] the target is T2, Sodium-dependent serotonin transporter (Homo sapiens, UniProt P31645).
In test [3] the target is T3, Beta-2 adrenergic receptor (Homo sapiens, UniProt P07550). It is filed as functional, cell-based.
The target of test [4] is Mu-type opioid receptor (Homo sapiens, UniProt P35372).
Test [5] deals with T3, Beta-2 adrenergic receptor.
Test [6] has as its target T4, Glucocorticoid receptor (Homo sapiens, UniProt P04150).
T4 sequence (P04150 whole entry): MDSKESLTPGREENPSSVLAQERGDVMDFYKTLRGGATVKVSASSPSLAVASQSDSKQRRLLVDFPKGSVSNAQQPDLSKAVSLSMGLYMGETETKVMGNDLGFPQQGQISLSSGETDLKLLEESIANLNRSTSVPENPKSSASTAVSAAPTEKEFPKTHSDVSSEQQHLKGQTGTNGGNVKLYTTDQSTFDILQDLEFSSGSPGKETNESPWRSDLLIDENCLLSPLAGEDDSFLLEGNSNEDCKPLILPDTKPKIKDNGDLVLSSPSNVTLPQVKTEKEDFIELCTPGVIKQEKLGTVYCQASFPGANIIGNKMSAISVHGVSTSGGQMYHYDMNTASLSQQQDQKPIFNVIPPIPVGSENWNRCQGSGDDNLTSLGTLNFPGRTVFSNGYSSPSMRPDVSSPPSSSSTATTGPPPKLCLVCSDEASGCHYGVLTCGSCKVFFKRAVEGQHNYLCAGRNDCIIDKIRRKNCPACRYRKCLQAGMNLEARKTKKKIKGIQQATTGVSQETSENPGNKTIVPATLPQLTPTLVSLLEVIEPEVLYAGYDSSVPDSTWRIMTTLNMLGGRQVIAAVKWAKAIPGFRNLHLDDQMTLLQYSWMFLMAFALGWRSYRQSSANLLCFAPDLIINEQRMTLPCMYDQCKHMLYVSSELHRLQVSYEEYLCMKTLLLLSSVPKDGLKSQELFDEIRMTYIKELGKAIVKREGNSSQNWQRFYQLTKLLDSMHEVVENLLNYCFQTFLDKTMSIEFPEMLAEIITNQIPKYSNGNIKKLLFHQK

The target in test [7] is D(1A) dopamine receptor (Homo sapiens, UniProt P21728).
Test [8] addresses Vasopressin V2 receptor (Homo sapiens, UniProt P30518).
The target of test [9] is T5, B2 bradykinin receptor (Homo sapiens, UniProt P30411).
T5 sequence (P30411 whole entry): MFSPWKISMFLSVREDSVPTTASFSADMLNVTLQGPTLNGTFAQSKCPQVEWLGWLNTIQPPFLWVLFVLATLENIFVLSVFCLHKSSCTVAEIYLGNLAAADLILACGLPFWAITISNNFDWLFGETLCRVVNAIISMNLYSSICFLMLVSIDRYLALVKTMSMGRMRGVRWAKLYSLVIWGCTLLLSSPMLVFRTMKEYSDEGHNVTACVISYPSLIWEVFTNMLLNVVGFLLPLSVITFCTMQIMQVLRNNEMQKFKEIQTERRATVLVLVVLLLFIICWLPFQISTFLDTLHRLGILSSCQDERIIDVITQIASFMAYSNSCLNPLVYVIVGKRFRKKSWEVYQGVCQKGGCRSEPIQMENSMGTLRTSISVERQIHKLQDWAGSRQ

The target of test [10] is T6, Estrogen receptor (Homo sapiens, UniProt P03372).
T6 sequence (P03372 whole entry): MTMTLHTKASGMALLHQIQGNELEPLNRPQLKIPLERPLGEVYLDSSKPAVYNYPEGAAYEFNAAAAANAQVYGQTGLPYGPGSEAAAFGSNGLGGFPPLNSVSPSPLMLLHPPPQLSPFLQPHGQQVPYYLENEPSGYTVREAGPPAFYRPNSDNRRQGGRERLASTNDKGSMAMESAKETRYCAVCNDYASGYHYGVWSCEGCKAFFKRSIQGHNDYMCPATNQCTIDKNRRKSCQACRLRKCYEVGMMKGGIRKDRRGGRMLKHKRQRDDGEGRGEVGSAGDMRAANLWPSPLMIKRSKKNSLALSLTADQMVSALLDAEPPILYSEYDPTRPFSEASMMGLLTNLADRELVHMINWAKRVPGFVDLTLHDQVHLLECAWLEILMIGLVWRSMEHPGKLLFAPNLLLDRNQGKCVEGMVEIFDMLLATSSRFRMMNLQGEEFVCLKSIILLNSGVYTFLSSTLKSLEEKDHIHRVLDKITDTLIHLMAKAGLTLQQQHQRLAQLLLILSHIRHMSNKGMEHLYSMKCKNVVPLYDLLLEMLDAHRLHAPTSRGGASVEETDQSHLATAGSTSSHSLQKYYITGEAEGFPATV

Test [11] concerns the target T2, Sodium-dependent serotonin transporter. This is another data set of the same source.

Some results are limits rather than exact numbers.
Note: assay procedure not described here.

Vasopressin V2 receptor, sequence (P30518 whole entry): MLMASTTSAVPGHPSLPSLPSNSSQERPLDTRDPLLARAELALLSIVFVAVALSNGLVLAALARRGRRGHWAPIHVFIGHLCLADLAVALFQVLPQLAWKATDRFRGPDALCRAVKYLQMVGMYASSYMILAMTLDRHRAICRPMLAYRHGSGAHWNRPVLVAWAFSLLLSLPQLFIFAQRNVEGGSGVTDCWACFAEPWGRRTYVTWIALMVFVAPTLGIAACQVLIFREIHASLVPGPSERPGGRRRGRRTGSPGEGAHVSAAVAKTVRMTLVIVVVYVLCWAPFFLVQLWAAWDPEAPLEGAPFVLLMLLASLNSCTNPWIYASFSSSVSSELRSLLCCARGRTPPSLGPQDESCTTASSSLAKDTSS
D(1A) dopamine receptor, sequence (P21728 whole entry): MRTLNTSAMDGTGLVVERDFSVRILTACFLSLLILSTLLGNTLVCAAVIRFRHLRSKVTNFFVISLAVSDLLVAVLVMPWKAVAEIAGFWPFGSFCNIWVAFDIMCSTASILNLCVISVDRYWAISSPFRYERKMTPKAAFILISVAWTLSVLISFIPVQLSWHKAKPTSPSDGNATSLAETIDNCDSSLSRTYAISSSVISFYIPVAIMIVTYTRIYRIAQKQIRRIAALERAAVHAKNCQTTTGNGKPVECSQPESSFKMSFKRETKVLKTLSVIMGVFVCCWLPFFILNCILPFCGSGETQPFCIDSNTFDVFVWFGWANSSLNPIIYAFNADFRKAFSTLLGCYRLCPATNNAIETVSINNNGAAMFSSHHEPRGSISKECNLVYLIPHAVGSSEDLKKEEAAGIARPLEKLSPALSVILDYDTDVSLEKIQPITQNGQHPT
T3 sequence (P07550 whole entry): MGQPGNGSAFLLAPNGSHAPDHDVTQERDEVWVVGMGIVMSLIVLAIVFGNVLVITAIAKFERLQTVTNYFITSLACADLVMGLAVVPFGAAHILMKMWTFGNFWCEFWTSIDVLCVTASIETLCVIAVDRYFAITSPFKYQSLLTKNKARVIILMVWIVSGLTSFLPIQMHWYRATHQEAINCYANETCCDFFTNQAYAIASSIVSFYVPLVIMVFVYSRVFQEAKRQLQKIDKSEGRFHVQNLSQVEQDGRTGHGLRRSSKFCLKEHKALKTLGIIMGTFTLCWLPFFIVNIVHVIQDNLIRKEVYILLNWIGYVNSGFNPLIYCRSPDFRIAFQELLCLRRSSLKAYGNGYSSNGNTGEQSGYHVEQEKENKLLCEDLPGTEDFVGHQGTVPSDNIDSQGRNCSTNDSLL
T2 sequence (P31645 whole entry): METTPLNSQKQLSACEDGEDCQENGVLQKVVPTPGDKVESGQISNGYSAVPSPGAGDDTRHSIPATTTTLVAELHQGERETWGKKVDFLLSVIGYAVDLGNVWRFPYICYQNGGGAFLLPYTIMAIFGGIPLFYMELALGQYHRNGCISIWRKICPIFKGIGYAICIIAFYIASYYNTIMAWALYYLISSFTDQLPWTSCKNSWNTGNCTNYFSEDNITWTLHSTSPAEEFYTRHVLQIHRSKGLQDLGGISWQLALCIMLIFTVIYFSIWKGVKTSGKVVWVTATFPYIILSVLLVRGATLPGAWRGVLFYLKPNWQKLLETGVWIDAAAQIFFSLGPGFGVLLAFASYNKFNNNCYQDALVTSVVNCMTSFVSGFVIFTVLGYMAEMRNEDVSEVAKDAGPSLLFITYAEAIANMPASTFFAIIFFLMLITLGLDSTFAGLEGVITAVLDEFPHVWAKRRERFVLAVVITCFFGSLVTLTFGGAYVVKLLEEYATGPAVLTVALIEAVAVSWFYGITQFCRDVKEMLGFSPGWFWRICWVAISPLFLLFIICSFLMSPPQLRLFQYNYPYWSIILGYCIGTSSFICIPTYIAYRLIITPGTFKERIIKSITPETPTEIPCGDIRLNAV
Mu-type opioid receptor, sequence (P35372 whole entry): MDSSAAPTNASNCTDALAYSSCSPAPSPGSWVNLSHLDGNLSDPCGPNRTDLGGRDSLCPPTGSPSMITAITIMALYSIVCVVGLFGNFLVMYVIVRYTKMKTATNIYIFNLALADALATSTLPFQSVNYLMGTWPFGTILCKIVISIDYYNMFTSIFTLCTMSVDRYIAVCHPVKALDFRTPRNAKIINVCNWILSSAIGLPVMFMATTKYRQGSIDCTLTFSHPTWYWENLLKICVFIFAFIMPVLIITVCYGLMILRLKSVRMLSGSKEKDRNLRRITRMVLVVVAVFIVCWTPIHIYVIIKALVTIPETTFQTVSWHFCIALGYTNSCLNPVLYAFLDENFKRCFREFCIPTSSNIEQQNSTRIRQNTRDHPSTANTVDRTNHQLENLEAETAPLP

One may read the AC50 as the concentration at which the activity in the assay is half-maximal. Turning to `CN(C)CCC=C1c2ccccc2C(C)(C)c2ccccc21`, the AC50 was 0.63 µM in [1], 0.24 µM in [2], greater than 30 µM in [3] and 24 µM in test [4].
Consider `CNC(=O)c1ccccc1Sc1ccc2c(/C=C/c3ccccn3)n[nH]c2c1` [AXITINIB], for which the AC50 in test [1] is greater than 30 µM; in test [5], greater than 10 µM; in test [2], greater than 30 µM; in test [3], greater than 30 µM; in [4], greater than 30 µM.
On to `NCC(CC(=O)O)c1ccc(Cl)cc1` (stereo not drawn) [BACLOFEN], for which the AC50 in test [1] was greater than 30 µM; in test [5], greater than 10 µM; in test [6], greater than 30 µM; in test [7], greater than 30 µM; in [8], greater than 30 µM; in test [3], greater than 30 µM. Also, the AC50 in test [9] and in test [4] was greater than 30 µM throughout.
For `CN(C)CCC(c1ccc(Cl)cc1)c1ccccn1` (stereo not drawn) [CHLORPHENIRAMINE], the concentration at half-maximal activity (AC50) is greater than 30 µM in test [1]; greater than 10 µM in test [5]; greater than 30 µM in test [6]; greater than 30 µM in test [8]; greater than 30 µM in test [3]; greater than 30 µM in test [9]. In [4], this compound returned an AC50 greater than 10 µM.
As for `O=C(Cc1ccc(-c2ccccc2)cc1)Nc1ccccn1` [DIFENPIRAMIDE], the half-maximal activity concentration (AC50) in test [1], in test [10], in [7], in test [3] and in test [11] was greater than 30 µM throughout.
In the case of `O=C1Nc2ccc(Cl)cc2[C@@](C#CC2CC2)(C(F)(F)F)O1` [EFAVIRENZ], the AC50 was greater than 30 µM in test [1]; greater than 30 µM in [5]; greater than 30 µM in [2]; 2.71 µM in [6]; greater than 30 µM in test [8]; greater than 30 µM in test [3]. Also, the AC50 in test [9] and in [4] was greater than 30 µM throughout.
Consider `O=C(OCC(O)CO)c1ccccc1Nc1ccnc2cc(Cl)ccc12` (stereo not drawn) [GLAFENINE], for which the AC50 in test [1], in test [2], in test [10], in test [7], in test [3] and in test [4] was greater than 30 µM throughout. In test [11], this compound displayed an AC50 greater than 30 µM.
Regarding `C[C@@H](O)[C@H]1C(=O)N2C(C(=O)O)=C(S[C@@H]3CN[C@H](C(=O)N(C)C)C3)[C@H](C)[C@H]12` [MEROPENEM], the AC50 in test [1] is greater than 300 µM; in test [5] it was greater than 10 µM; in [6], greater than 10 µM; in test [8], greater than 10 µM; in [3] it was greater than 300 µM; in test [9] it was greater than 10 µM. The AC50 in test [4] is greater than 300 µM.
Regarding `CNC1Cc2ccccc2N(C)c2ccccc21` (stereo not drawn) [METAPRAMINE], the AC50 in [1] is 3.4 µM; in [2] it was 14 µM; in test [3] it was greater than 30 µM; in test [4], greater than 30 µM.
Consider `c1cnc(N2CCN(Cc3ccc4c(c3)OCO4)CC2)nc1` [PIRIBEDIL], for which the AC50 in test [1] is 23 µM; in test [2], 12 µM; in test [3], greater than 30 µM; in test [4] it was greater than 30 µM.
`COCCCN1CCC(NC(=O)c2cc(Cl)c(N)c3c2OCC3)CC1` [PRUCALOPRIDE]: the half-maximal activity concentration (AC50) was 15 µM in test [1]; greater than 30 µM in test [2]; greater than 30 µM in [7]; greater than 30 µM in test [3]; greater than 30 µM in test [4]; greater than 30 µM in [11].
`CS(=O)(=O)c1ccc(C2=C(c3ccccc3)C(=O)OC2)cc1` [ROFECOXIB]: the AC50 is greater than 30 µM in [1]; greater than 10 µM in [5]; greater than 30 µM in test [6]; greater than 30 µM in test [7]; greater than 30 µM in test [8]; greater than 30 µM in test [3]. Further, the AC50 in [9] is greater than 30 µM; in [4], greater than 10 µM.
As for `CO[C@H]1C[C@@H]2CC[C@@H](C)[C@@](O)(O2)C(=O)C(=O)N2CCCC[C@H]2C(=O)O[C@H]([C@H](C)C[C@@H]2CC[C@@H](O)[C@H](OC)C2)CC(=O)[C@H](C)/C=C(\C)[C@@H](O)[C@@H](OC)C(=O)[C@H](C)C[C@H](C)/C=C/C=C/C=C/1C` [SIROLIMUS], the AC50 in [1] is greater than 30 µM; in test [5], greater than 10 µM; in test [10], greater than 30 µM; in [7], greater than 30 µM; in test [8], greater than 30 µM; in [3], greater than 30 µM. In addition, the AC50 was greater than 30 µM in test [9] and greater than 10 µM in [4].
For `Cn1nnc2c(C(N)=O)ncn2c1=O` [TEMOZOLOMIDE], the AC50 in test [1] was greater than 30 µM; in test [5], greater than 10 µM; in test [2], greater than 30 µM; in test [8] it was greater than 30 µM; in test [3], greater than 30 µM; in [9], greater than 30 µM. Moreover, the AC50 in test [4] is greater than 30 µM.
